Patent US10246429B2, “Vinyl fluoride cyclopropyl fused thiazin-2-amine compounds as beta-secretase inhibitors and methods of use” (AMGEN INC., priority 2015, dated 2019)

What was measured:
BACE2 = BACE2 (Homo sapiens (Human), UniProt Q9Y5Z0); assay: In vitro enzymatic BACE2 FRET assay; assay type: biochemical; conditions: read-out: IC50 IP (μM) BACE2 Enzyme
Text: (§1) In Vitro Enzymatic BACE1 and BACE2 FRET (Fluorescence Resonance Energy Transfer) Assays (Enzyme Assay Data in Table 1)

BACE1 [1] = target: T1, BACE1 (Homo sapiens (Human), UniProt P56817); assay: BACE1 cell assay; assay type: cell-based
Target sequence in this assay (P56817 46-501, species assumed): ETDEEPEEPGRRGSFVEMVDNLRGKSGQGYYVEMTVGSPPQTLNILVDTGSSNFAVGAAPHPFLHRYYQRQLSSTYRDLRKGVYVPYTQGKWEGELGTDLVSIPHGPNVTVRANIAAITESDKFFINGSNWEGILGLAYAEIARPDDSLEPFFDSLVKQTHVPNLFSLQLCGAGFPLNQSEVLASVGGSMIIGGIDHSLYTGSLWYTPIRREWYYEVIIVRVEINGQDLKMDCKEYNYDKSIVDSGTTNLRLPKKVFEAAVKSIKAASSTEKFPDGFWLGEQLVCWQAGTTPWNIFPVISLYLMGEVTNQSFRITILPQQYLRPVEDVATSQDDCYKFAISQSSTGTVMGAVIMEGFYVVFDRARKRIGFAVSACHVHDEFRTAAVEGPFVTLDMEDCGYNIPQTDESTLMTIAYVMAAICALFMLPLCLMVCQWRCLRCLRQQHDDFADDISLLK

BACE1 [2] = target: T1, BACE1; assay: In vitro enzymatic BACE1 FRET assay; assay type: biochemical; conditions: read-out: IC50 IP (μM) BACE1 Enzyme
Target sequence in this assay (P56817 46-501): as the sequence (P56817 46-501, species assumed) above
Text: as §1

Cathepsin D (CatD) = Cathepsin D (CatD) (Homo sapiens (Human), UniProt P07339); assay: CatD assay; assay type: biochemical; conditions: read-out: IC50 IP (μM) CatD
[3] = read-out: IC50 IP (μM) BACE1 Cell

Chain of BACE2 (Q9Y5Z0 63-518): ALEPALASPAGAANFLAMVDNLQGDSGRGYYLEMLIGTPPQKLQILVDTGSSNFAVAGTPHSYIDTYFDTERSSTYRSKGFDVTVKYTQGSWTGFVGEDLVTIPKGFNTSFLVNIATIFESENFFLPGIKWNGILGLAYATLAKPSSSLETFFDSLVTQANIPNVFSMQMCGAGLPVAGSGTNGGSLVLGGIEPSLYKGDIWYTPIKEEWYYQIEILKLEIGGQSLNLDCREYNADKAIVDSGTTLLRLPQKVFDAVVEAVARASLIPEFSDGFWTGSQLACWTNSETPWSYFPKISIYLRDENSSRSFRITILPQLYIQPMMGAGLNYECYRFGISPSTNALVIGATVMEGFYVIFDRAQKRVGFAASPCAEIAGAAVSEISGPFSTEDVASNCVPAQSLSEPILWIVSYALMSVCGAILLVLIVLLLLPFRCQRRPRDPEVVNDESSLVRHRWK
Chain of Cathepsin D (CatD) (P07339 65-412, species assumed): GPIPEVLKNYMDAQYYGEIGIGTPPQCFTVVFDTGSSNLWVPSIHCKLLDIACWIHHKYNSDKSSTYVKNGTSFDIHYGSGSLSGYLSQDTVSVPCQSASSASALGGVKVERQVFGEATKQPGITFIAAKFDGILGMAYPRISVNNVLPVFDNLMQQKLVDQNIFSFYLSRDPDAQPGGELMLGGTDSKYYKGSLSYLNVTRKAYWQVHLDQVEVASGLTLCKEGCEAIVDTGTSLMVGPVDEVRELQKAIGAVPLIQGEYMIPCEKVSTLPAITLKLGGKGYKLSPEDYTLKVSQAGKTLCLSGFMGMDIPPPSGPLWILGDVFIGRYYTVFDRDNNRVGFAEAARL

| Structure (SMILES) | IC50 (BACE2) [µM] | IC50 (BACE1 [1]) [µM] | IC50 (BACE1 [2]) [µM] | IC50 (Cathepsin D (CatD)) [µM] | IC50 (BACE1 [1]; [3]) [µM] |
| --- | --- | --- | --- | --- | --- |
| C#Cc1cnc(/C(F)=C/c2ccc(F)c([C@@]3(C)N=C(N)S[C@@]4(C(=O)N(C)C)C[C@H]43)c2)cn1 [Example 205, (1S,5S,6S)-3-amino-5-(5-((Z)-2-(5-ethynylpyrazin-2-yl)-2-fluorovinyl)-2-fluorophenyl)-N,N,5-trimethyl-2-thia-4-azabicyclo[4.1.0]hept-3-ene-1-carboxamide] | 0.01 | 0.569 | 0.002 | 113 | – |
| C[C@]1(c2cc(/C=C(\F)c3ccc(C#N)cn3)cnc2F)N=C(N)S[C@@]2(C(=O)N3CC[C@@H](F)C3)C[C@H]21 [Example 181, 6-((Z)-2-(5-((1S,5S,6S)-3-amino-1-((R)-3-fluoropyrrolidine-1-carbonyl)-5-methyl-2-thia-4-azabicyclo[4.1.0]hept-3-en-5-yl)-6-fluoropyridin-3-yl)-1-fluorovinyl)nicotinonitrile] | 0.033 | – | 0.0021 | 653 | 0.0073 |
| Cc1cc(COc2cnc(/C(F)=C/c3ccc(F)c([C@@]4(C)N=C(N)S[C@@]5(C(=O)N(C)C)C[C@H]54)c3)cn2)on1 [Example 218, (1S,5S,6S)-3-amino-5-(2-fluoro-5-((Z)-2-fluoro-2-(5-((3-methylisoxazol-5-yl)methoxy)pyrazin-2-yl)vinyl)phenyl)-N,N,5-trimethyl-2-thia-4-azabicyclo[4.1.0]hept-3-ene-1-carboxamide] | 0.033 | 0.04 | 0.01 | 156 | – |
| C[C@]1(c2cc(/C=C(\F)c3ccc(C#N)cn3)ccc2F)N=C(N)S[C@]2(CO)[C@H]1C2(F)F [Example 251, 6-((Z)-2-(3-((1S,5S,6R)-3-amino-7,7-difluoro-1-(hydroxymethyl)-5-methyl-2-thia-4-azabicyclo[4.1.0]hept-3-en-5-yl)-4-fluorophenyl)-1-fluorovinyl)nicotinonitrile] | 0.159 | – | 0.012 | 360 | 0.062 |
| COC[C@H](C)Oc1cnc(/C(F)=C/c2ccc(F)c([C@@]3(C)N=C(N)S[C@@]4(C(=O)N(C)C)C[C@H]43)c2)cn1 [Example 214, (1S,5S,6S)-3-amino-5-(2-fluoro-5-((Z)-2-fluoro-2-(5-(((S)-1-methoxypropan-2-yl)oxy)pyrazin-2-yl)vinyl)phenyl)-N,N,5-trimethyl-2-thia-4-azabicyclo[4.1.0]hept-3-ene-1-carboxamide] | 0.072 | – | 0.014 | 134 | 0.024 |
| CNC(=O)[C@]12C[C@H]1[C@@](C)(c1cc(/C=C(\F)c3cnc(Cl)cn3)ccc1F)N=C(N)S2 [Example 352, (1S,5S,6S)-3-amino-5-(5-((Z)-2-(5-chloropyrazin-2-yl)-2-fluorovinyl)-2-fluorophenyl)-N,5-dimethyl-2-thia-4-azabicyclo[4.1.0]hept-3-ene-1-carboxamide] | 0.029 | – | 0.007 | 101 | 0.006 |
| CN(C)C(=O)[C@]12C[C@H]1[C@@](C)(c1cc(/C=C(\F)c3ccc(C#CC4CC4)cn3)ccc1F)N=C(N)S2 [Example 109, (1S,5S,6S)-3-amino-5-(5-((Z)-2-(5-(cyclopropylethynyl)pyridin-2-yl)-2-fluorovinyl)-2-fluorophenyl)-N,N,5-trimethyl-2-thia-4-azabicyclo[4.1.0]hept-3-ene-1-carboxamide] | 0.0615 | – | 0.00849 | 138 | 0.223 |
| CNC(=O)[C@]12C[C@H]1[C@@](C)(c1cc(/C=C(\F)c3cnc(C#C[Si](C)(C)C)cn3)ccc1F)N=C(N)S2 [Example 166, (1S,5S,6S)-3-amino-5-(2-fluoro-5-((Z)-2-fluoro-2-(5-((trimethylsilyl)ethynyl)pyrazin-2-yl)vinyl)phenyl)-N,5-dimethyl-2-thia-4-azabicyclo[4.1.0]hept-3-ene-1-carboxamide] | 1.72 | – | 0.0171 | 146 | 0.185 |
| COC[C@]12C[C@H]1[C@@](CF)(c1cc(/C=C(\F)c3ccc(Cl)cn3)ccc1F)N=C(N)S2 [Example 100, (1S,5S,6S)-5-(5-((Z)-2-(5-chloropyridin-2-yl)-2-fluorovinyl)-2-fluorophenyl)-5-(fluoromethyl)-1-(methoxymethyl)-2-thia-4-azabicyclo[4.1.0]hept-3-en-3-amine] | 0.0421 | – | 0.0228 | 933 | 0.26 |
| C#CCOc1cnc(/C(F)=C/c2cnc(F)c([C@@]3(C)N=C(N)S[C@@]4(C(=O)N(C)C)C[C@H]43)c2)cn1 [Example 287, (1S,5S,6S)-3-amino-5-(2-fluoro-5-((Z)-2-fluoro-2-(5-(prop-2-yn-1-yloxy)pyrazin-2-yl)vinyl)pyridin-3-yl)-N,N,5-trimethyl-2-thia-4-azabicyclo[4.1.0]hept-3-ene-1-carboxamide] | 0.04 | – | 0.0019 | 206 | 0.0022 |
| C[C@]1(c2cc(/C=C(\F)c3ccccn3)ccc2F)N=C(N)S[C@@]2(C(=O)N3CCOCC3)C[C@H]21 [Example 339, ((1S,5S,6S)-3-amino-5-(2-fluoro-5-((Z)-2-fluoro-2-(pyridin-2-yl)vinyl)phenyl)-5-methyl-2-thia-4-azabicyclo[4.1.0]hept-3-en-1-yl)(morpholino)methanone] | 0.165 | – | 0.22 | 520 | 0.252 |
| CN(C)C(=O)[C@]12C[C@H]1[C@@](C)(c1cc(/C=C(\F)c3cnc(C#N)cn3)cnc1F)N=C(N)S2 [Example 296, (1S,5S,6S)-3-amino-5-(5-((Z)-2-(5-cyanopyrazin-2-yl)-2-fluorovinyl)-2-fluoropyridin-3-yl)-N,N,5-trimethyl-2-thia-4-azabicyclo[4.1.0]hept-3-ene-1-carboxamide] | 0.037 | 0.0435 | 0.0119 | 290 | – |
| CN(C)C(=O)[C@]12C[C@H]1[C@@](C)(c1cc(/C=C(\F)c3cnc(OCC4COC4)cn3)ccc1F)N=C(N)S2 [Example 212, (1S,5S,6S)-3-amino-5-(2-fluoro-5-((Z)-2-fluoro-2-(5-(oxetan-3-ylmethoxy)pyrazin-2-yl)vinyl)phenyl)-N,N,5-trimethyl-2-thia-4-azabicyclo[4.1.0]hept-3-ene-1-carboxamide] | 0.077 | – | 0.076 | 202 | 0.065 |
| COCCOc1cnc(/C(F)=C/c2ccc(F)c([C@@]3(C)N=C(N)S[C@@]4(C(=O)N(C)C)C[C@H]43)c2)cn1 [Example 210, (1S,5S,6S)-3-amino-5-(2-fluoro-5-((Z)-2-fluoro-2-(5-(2-methoxyethoxy)pyrazin-2-yl)vinyl)phenyl)-N,N,5-trimethyl-2-thia-4-azabicyclo[4.1.0]hept-3-ene-1-carboxamide] | 0.072 | 0.007 | 0.011 | 159 | – |
| CN(C)C(=O)[C@]12C[C@H]1[C@@](C)(c1cc(/C=C(\F)C#Cc3ccccc3)ccc1F)N=C(N)S2 [Example 207, (1S,5S,6S)-3-amino-5-(2-fluoro-5-((Z)-2-fluoro-4-phenylbut-1-en-3-yn-1-yl)phenyl)-N,N,5-trimethyl-2-thia-4-azabicyclo[4.1.0]hept-3-ene-1-carboxamide] | 0.018 | – | 0.005 | 14.6 | 0.335 |
| COC(=O)[C@]12C[C@H]1[C@@](C)(c1cc(/C=C(\F)c3ccc(Cl)cn3)cnc1F)N=C(N)S2 [Example 176, (1S,5S,6S)-methyl 3-amino-5-(5-((Z)-2-(5-chloropyridin-2-yl)-2-fluorovinyl)-2-fluoropyridin-3-yl)-5-methyl-2-thia-4-azabicyclo[4.1.0]hept-3-ene-1-carboxylate] | 0.214 | – | 0.142 | > 400 | 1.76 |
| C[C@]1(c2cc(/C=C(\F)c3ccc(C#N)cn3)ccc2F)N=C(N)S[C@@]2(C(=O)N3C4CCC3COC4)C[C@H]21 [Example 315, 6-((Z)-2-(3-((1S,5S,6S)-3-amino-1-(3-oxa-8-azabicyclo[3.2.1]octane-8-carbonyl)-5-methyl-2-thia-4-azabicyclo[4.1.0]hept-3-en-5-yl)-4-fluorophenyl)-1-fluorovinyl)nicotinonitrile] | 0.071 | 0.0013 | 0.0016 | 390 | – |
| C[C@]1(c2cc(/C=C(\F)c3cnc(C#CC4CC4)cn3)ccc2F)N=C(N)S[C@@]2(C(=O)N3CCOCC3)C[C@H]21 [Example 353, ((1S,5S,6S)-3-amino-5-(5-((Z)-2-(5-(cyclopropylethynyl)pyrazin-2-yl)-2-fluorovinyl)-2-fluorophenyl)-5-methyl-2-thia-4-azabicyclo[4.1.0]hept-3-en-1-yl)(morpholino)methanone] | 0.145 | – | 0.002 | 61 | 0.014 |
| CN(C)C(=O)[C@]12C[C@H]1[C@@](C)(c1cc(/C=C(\F)c3ncc4c(n3)OCCO4)ccc1F)N=C(N)S2 [Example 250, (1S,5S,6S)-3-amino-5-(5-((Z)-2-(6,7-dihydro-[1,4]dioxino[2,3-d]pyrimidin-2-yl)-2-fluorovinyl)-2-fluorophenyl)-N,N,5-trimethyl-2-thia-4-azabicyclo[4.1.0]hept-3-ene-1-carboxamide] | 0.076 | – | 0.029 | 368 | 0.017 |
| C[C@H]1[C@H](O)CCN1C(=O)[C@]12C[C@H]1[C@@](C)(c1cc(/C=C(\F)c3ccc(C#N)cn3)ccc1F)N=C(N)S2 [Example 336, 6-((Z)-2-(3-((1S,5S,6S)-3-amino-1-((2S,3R)-3-hydroxy-2-methylpyrrolidine-1-carbonyl)-5-methyl-2-thia-4-azabicyclo[4.1.0]hept-3-en-5-yl)-4-fluorophenyl)-1-fluorovinyl)nicotinonitrile] | 0.055 | – | 0.0013 | 151 | 0.0005 |
